Here are results for one compound from PMC11403612, “Preparation and Preclinical Characterization of a Simple Ester for Dual Exogenous Supply of Lactate and Beta-hydroxybutyrate” (Journal of Agricultural and Food Chemistry, 2024).

Series [1] can be described thus: Stability of LaKe upon storage (neat, GC-FID). Format: physicochemical. Particulars: ambient temperature. As to the method: Following preparation, LaKe was analyzed by GC-FID. Subsequently, LaKe was stored neat at either −15, 0, and 20 °C and the samples were reanalyzed after 24 months. Table S1 (Supporting Information) contains the corresponding stability data and the GC-FID conditions applied.

In series [2] the test system is N-L-lactoyl-phenylalanine (Lac-Phe). As to the kind of experiment: Plasma N-L-lactoyl-phenylalanine after oral LaKe in rats. Format: in vivo, Sprague–Dawley rats. Conditions: 4.5 g/kg oral. Here is the method: (§1) Male Sprague–Dawley rats (300–350g, Taconic, Ry, Denmark) were kept for acclimatization at a constant temperature of 23 °C with a 12 h light-dark cycle and with unlimited access to food and water. All animal handling was in accordance with national guidelines in Denmark and the guidelines from the Directive 2010/63/EU of the European Parliament on the protection of animals used for scientific purposes, and all experiments conformed to Danish Law (Act. No. 1306 of 23/11/2007). The experimental protocol was approved by the Danish Animal Expectorate (2018-15-0201-01475).
(§2) The rats were randomly selected to receive either LaKe (n = 8) or placebo (n = 8). […]
(§3) Concentrations of non-esterified free fatty acids (FFA) were measured using a NEFA-HR(2) kit (Wako, Chemicals Gmbh, Germany). Absorbance was measured by spectrometry (PHERAstar FS, BMG LABTECH, […]
(§4) Quantification of N-L-lactoyl phenylalanine (Lac-Phe) by LC-MS/MS […]
(§5) Pure calibrant samples were prepared from an authentic standard compound (N-L-lactoyl phenylalanine), using the plasma sample preparation method at concentrations equivalent to […] in the original sample. The lower limit of quantification for N-L-lactoyl phenylalanine (Lac-Phe) quantification was estimated to 10 nM. […]

The subject of series [3] is plasma free fatty acids (FFA). As to the kind of experiment: Plasma free fatty acids after oral LaKe in rats. Particulars: 4.5 g/kg oral. Format: in vivo, Sprague–Dawley rats. Here is the method: as §1, §2, §3, §4, §5

A value given as a limit tells only on which side of the number the result lay.

As to `CC(O)CCOC(=O)C(C)O` (stereo not shown) [LaKe, 3-hydroxybutyl 2-hydroxypropanoate], the “stability to storage in the neat state” value in series [1] is recorded as “at least 2 years”. Further, the “change in plasma Lac-Phe” value in series [2] is reported as “increase”. The “maximum suppression of FFA levels” value in series [3] (75 min time point, compared to vehicle) is listed as > 40%. The “change in plasma free fatty acids compared to vehicle control” value in series [3] (from 15 min until 105 min) is “decrease”.
